Measurements as given in US20130053323A1, “METHODS AND USE RELATED TO HUMANIN AND HUMANIN-LIKE PEPTIDES” (priority 2009, published 2013).
“Also recorded” adds a separate entry of the source.

What was measured:
[1] = test system: FVB mice; experiment: Dexa-induced growth retardation in FVB mice (tibia length, nose to anus length); assay type: in vivo; settings: HNG 1 μg/mice/day i.p. prior to Dexa 20 μg/mice/day; for rescue from Dexa-induced growth retardation (nose to anus length): 4 weeks
Procedure: Four weeks old female mice FVB strain were obtained from Charles-River, Germany. The mice were kept in animal facility under a 12-h light, 12-h dark schedule with water ad libitum. After an adaptation period, mice were injected with Dexa dissolved in saline (20 μg/mice) subcutaneously in the neck every day for 1 week (short-term). Whereas, HNG (S14G) dissolved in saline (1 μg/mice) was injected intraperitoneally, 45 minutes prior to Dexa injection. The vehicle group received saline only. After one week of treatment/injections, animals were sacrificed and the back legs (femur and tibia) were collected. The skin and muscle from the tibia was removed and final length of tibia was measured by using electronic digital caliper as reported previously (Zaman, Menendez-Benito et al. 2007).
In another study, four weeks old female mice FVB strain (Charles-river, Germany) were injected with Dexa dissolved in saline (20 μg/mice) subcutaneously in the neck every day for four week (long-term). Whereas, HNG (S14G) dissolved in saline (1 μg/mice) was injected intraperitoneally, 45 minutes prior to Dexa injection. The vehicle group received saline only. The total body length (nose to anus) was measured (centimeters, cm) manually (blinded, the cadges were coded on the day of measurment), every week. After 4 weeks of treatment, animals were sacrificed by inhalation of CO2, tissue samples (both left and right leg) were collected for subsequent analysis.
HNG injections were given […] prior to Dexa injections. […] After this, we next asked whether HNG (S14G) has any protective effects on bone growth after long-term treatment with Dexa (FIG. 3A). To investigate this, we treated mice for 4 weeks (group 2) with Dexa (20 μg/mice/day) and HNG (1 μg/mice/day). […] In FIG. 3B, total growth of the animals, nose to anus length (cm, manually) was analyzed in vehicle, Dexa, HNG (S14G) and Dexa/HNG (S14G) treated animals after four weeks of injections. **p<0.01 by 1-way ANOVA analyses, n=9-10/animals/group).

[2] = test system: FVB mice; experiment: Bone mineral density by dual energy X-ray absorptiometry in FVB mice; assay type: in vivo; settings: HNG 1 μg/mice/day for four weeks, vs vehicle
Procedure: Areal bone mineral density (BMD; BMC/cm^2) and BMC were measured by dual energy X-ray absorptiometry (DXA) using the Lunar PIXImus mouse densitometer (Wipro GE Healthcare, Madison, Wisc.). Ex vivo measurements were taken from FVB mice treated with Dexa and HNG for four weeks (for details see methods and materials). The measurements of left femur and tibia were performed on excised bones placed on a 1-cm-thick Plexiglas™ table. All bones compared were measured in the same scan (high-resolution scan with line spacing set at 0.01 cm). n=9-10/animals/group.
In the light of the above findings where it was observed rescuing effects of HNG (S14G) on bone growth both in vitro and in vivo, it was analyzed whether HNG (S14G) has the capacity to regulate BMD. […] Trabecular BMD in tibia (mg/cm^3) of four-week old FVB mice treated for 4 weeks was measured by using DEXA (see protocol in material and methods).

[3] = test system: apoptosis inducing factor (AIF) and BAX; experiment: Western immunoblotting of pro-apoptotic proteins in C5.18 chondrocytic cell line; assay type: cell-based, rat; settings: 100 nM HNG/1000 nM bortezomib, 6hrs
Procedure: Western immunoblotting to study protein expression was performed in the rat C5.18 chondrocytic cell line after treatment with 1000 nM CT (bortezomib) or 100 nM humanin analog HNG (S14G)/1000 nM CT (bortezomib (Btz)) for 6hrs. […] By adding humanin analog HNG (S14G), the up-regulation and activation of the two pro-apoptotic proteins were suppressed. […] As an internal control the house-keeping gene, GAPDH (35 kDa) was used. The experiment was repeated twice.

[4] = test system: medulloblastoma (D-283) xenograft; experiment: Tumor volume in medulloblastoma xenograft in NMRI nude mice; assay type: in vivo, human; settings: bortezomib + HNG i.p., until day 13
Procedure: Male NMRI nu/nu mice (B&K Scanbur, Sweden or Taconic, Denmark) were xenografted at the age of 4 weeks (BW 18-25 g). The mice were anesthetized with 2% fluothane (Zeneca Ltd, Macclesfield, UK) supplemented with 50% N2O in oxygen. Tumor cells (NB (SH-SY5Y; 20×10^6 cells/side) or MB (D-283; 10×10^6 cells/side) in 0.1 ml medium) were implanted s.c. in the hindlegs of the animal using a 23 G needle. Tumors were measured every other day with a digital caliper, starting when they were palpable. At a tumor volume of 0.1 ml or 0.15 ml the animals were randomized into groups (1. Vehicle without tumors; 2. Vehicle with tumors; 3. HNG (S14G; 1 μg/mice); 4. CT (bortezomib; 0.8 mg/kg or 1 mg/kg); 5. HNG (S14G) 1 μg/mice+CT (bortezomib; 0.8 mg/kg or 1 mg/kg), stratified by their bodyweight and treatment started. Treatment regime was the same as in clinical settings with 2 injections/week; 2 weeks treatment (see FIG. 1, Group 1). HNG (S14G) was injected 40 min before the CT (bortezomib) injection. Tumor volume was calculated by the formula 0.44×length×width×width (Wassberg, Pahlman et al. 1997). […] The animal weight and general appearance were recorded every day throughout the experiments. […] After fixation, femur and tibia were measured with digital calipers and decalcified in 5% EDTA and then paraffin embedded. […]

## S14G-HN (MAPRGFSCLLLLTGEIDLPVKRRA) [HNG (S14G)]
[1]; 1 week
  rescue from Dexa-induced growth retardation (tibia length): protected mice from Dexa-induced growth retardation; also recorded: rescued mice from Dexa-induced growth retardation
[1]
  rescue from Dexa-induced growth retardation (nose to anus length): completely rescued mice from Dexa-induced growth retardation
[1]; listed as HNG (314G)
  rescue from Dexa-induced growth retardation (nose to anus length): protected mice from Dexa-induced growth retardation
[2]
  trabecular BMD in tibia: trend towards increased BMD
[3]
  bortezomib-induced up-regulation and activation of AIF and BAX: suppressed
[4]
  interference with anti-cancer effect of bortezomib (tumor volume): does not interfere with the anti-cancer effect
